*1 amine or outer side, *2 acyl side, *3 side chain or, on linkers, in order; H or OH if unused. Where a SMILES comes first, the peptide text is derived from it. Bridges are numbered along the chain shown (N, C = ends). [ ]: non-standard residue; d: D form. The star is where a group is joined. ξ: configuration not given here. ξOrn(4,5-diOH) = O=C(C(CC(O)C(O)N[*:3])N[*:1])[*:2]; ξhTyr(βξ-OH,γξ-OH) = NC(C(=O)O)C(O)C(O)c1ccc(O)cc1; ξPro(3ξ-OH,4ξ-Me) = CC1CNC(C(=O)O)C1O; X2 = O=C(C=Cc1ccc(N[*:1])cc1)[*:2]; Palmitoyl = CCCCCCCCCCCCCCCC(=O)*; X6 = O=C(Cc1ccc(N[*:1])cc1)[*:2]; X3 = CCCCCCCCOc1ccc(CC(=O)*)cc1; X5 = CCCCCCCOc1ccc(CCC(=O)*)cc1; X1 = CCCCCC=CCC=CCCCCCCCC(=O)*; X4 = CCCCCOc1ccc(CCC(=O)*)cc1; Hyp = O=C(O)[CH]1C[CH](O)CN1; Lauroyl = CCCCCCCCCCCC(=O)*; 4Abz = Nc1ccc(C(=O)O)cc1
Target: T1, ECB deacylase (Actinoplanes utahensis, UniProt P29958)
T1 construct: ECB deacylase is an 81-kilodalton (KD) heterodimer comprising 63-KD and 18 KD subunits; made in house; host or cells: Actinoplanes utahensis (native producer, not recombinant); enzyme solubilized from whole cells with salt and purified
T1 sequence (P29958 230-786 limits assumed): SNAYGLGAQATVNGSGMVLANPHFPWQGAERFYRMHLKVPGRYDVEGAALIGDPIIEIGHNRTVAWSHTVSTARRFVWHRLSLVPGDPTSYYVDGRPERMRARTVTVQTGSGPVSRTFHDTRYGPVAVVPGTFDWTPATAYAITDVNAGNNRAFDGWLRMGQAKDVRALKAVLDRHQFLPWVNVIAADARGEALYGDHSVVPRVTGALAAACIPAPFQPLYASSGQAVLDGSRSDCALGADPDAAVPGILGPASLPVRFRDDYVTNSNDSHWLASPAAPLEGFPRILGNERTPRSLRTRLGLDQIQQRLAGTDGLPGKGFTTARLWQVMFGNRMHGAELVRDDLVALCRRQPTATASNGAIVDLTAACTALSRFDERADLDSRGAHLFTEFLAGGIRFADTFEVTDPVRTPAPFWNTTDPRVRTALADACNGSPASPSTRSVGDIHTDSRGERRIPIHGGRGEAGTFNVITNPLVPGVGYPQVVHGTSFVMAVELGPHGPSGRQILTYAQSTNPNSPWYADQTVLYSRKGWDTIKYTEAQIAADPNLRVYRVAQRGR
T1 sequence (P29958 35-214 limits assumed): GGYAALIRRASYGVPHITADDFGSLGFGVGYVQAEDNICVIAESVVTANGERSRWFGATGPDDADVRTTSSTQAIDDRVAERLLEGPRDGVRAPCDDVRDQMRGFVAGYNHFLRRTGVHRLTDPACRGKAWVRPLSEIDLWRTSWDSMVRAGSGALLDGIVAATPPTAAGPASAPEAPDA
Experiment: ECB deacylase assay (formation of ECB nucleus by HPLC)
Type: biochemical
Conditions: for percent activity relative to the deacylase activity of 100% for ECB itself: substrate specificity
Experimental: The assay employed herein for determining and measuring deacylase activity utilizes echinocandin B as substrate. A typical reaction mixture of 1 ml for ECB deacylase assay contained […] of ECB and 0.000003 to 0.003 unit of the enzyme in 0.05M KH2 PO4, pH 6.0, in the presence of 0.68M KCl and 15% DMSO to effect solution of the ECB. The enzymatic reaction was initiated by addition of the enzyme and was continued for 20 min at 60° C. before being interrupted by the addition of phosphoric acid. After a low-speed centrifugation to remove precipitated protein, the deacylase activity was determined by monitoring the formation of ECB nucleus at 225 nm using HPLC.
HPLC components were IBM PS/2 Model 80 and Color Display (IBM, Armonk, N.Y.), a Water 715 Ultra WISP Sample Processor (Waters Associates, Milford, Mass.), and a Beckman System Gold Programmable Solvent Module 126 and Scanning Detector Module 167 (Beckman, Fullerton, Calif.).
The ECB nucleus was eluted from an Apex Octadecyl 3 μ column (4.6×10 cm) (Jones Chromatography, Littleton, Co.) with a mobile phase of 3.9% CH3 CN/0.1% trifluoroacetic acid and a flow rate of 1 ml/min. The nucleus formation was linear with time during the assays. […] As used herein one unit of enzyme activity is defined as the amount of the deacylase required to cause formation of one μmole of the ECB nucleus per minute from ECB under the above described reaction conditions.

Molecule	percent activity relative to the deacylase activity of 100% for ECB itself (purified deacylase) [%]	substrate of the purified deacylase (in words) (purified deacylase)	also measured
CCCCCCCCCCCC(=O)Nc1ccc(C=CC(=O)NC2CC(O)C(O)NC(=O)C3C(O)C(C)CN3C(=O)C(C(C)O)NC(=O)C(C(O)C(O)c3ccc(O)cc3)NC(=O)C3CC(O)CN3C(=O)C(C(C)O)NC2=O)cc1 (stereo not drawn) (Lauroyl-[X2][ξOrn(4,5-diOH)]T[Hyp][ξhTyr(βξ-OH,γξ-OH)]T[ξPro(3ξ-OH,4ξ-Me)]; lactam 2-C; configuration not given here)	15		
CCCCCCCCCCCC(=O)Nc1ccc(CC(=O)NC2CC(O)C(O)NC(=O)C3C(O)C(C)CN3C(=O)C(C(C)O)NC(=O)C(C(O)C(O)c3ccc(O)cc3)NC(=O)C3CC(O)CN3C(=O)C(C(C)O)NC2=O)cc1 (stereo not drawn) (Lauroyl-[X6][ξOrn(4,5-diOH)]T[Hyp][ξhTyr(βξ-OH,γξ-OH)]T[ξPro(3ξ-OH,4ξ-Me)]; lactam 2-C; configuration not given here)	5		
CCCCCCCCOc1ccc(CC(=O)NC2CC(O)C(O)NC(=O)C3C(O)C(C)CN3C(=O)C(C(C)O)NC(=O)C(C(O)C(O)c3ccc(O)cc3)NC(=O)C3CC(O)CN3C(=O)C(C(C)O)NC2=O)cc1 (stereo not drawn) (X3-[ξOrn(4,5-diOH)]T[Hyp][ξhTyr(βξ-OH,γξ-OH)]T[ξPro(3ξ-OH,4ξ-Me)]; lactam 1-C; configuration not given here)	30		
CCCCCOc1ccc(CCC(=O)NC2CC(O)C(O)NC(=O)C3C(O)C(C)CN3C(=O)C(C(C)O)NC(=O)C(C(O)C(O)c3ccc(O)cc3)NC(=O)C3CC(O)CN3C(=O)C(C(C)O)NC2=O)cc1 (stereo not drawn) (X4-[ξOrn(4,5-diOH)]T[Hyp][ξhTyr(βξ-OH,γξ-OH)]T[ξPro(3ξ-OH,4ξ-Me)]; lactam 1-C; configuration not given here)	12		
CCCCCCCOc1ccc(CCC(=O)NC2CC(O)C(O)NC(=O)C3C(O)C(C)CN3C(=O)C(C(C)O)NC(=O)C(C(O)C(O)c3ccc(O)cc3)NC(=O)C3CC(O)CN3C(=O)C(C(C)O)NC2=O)cc1 (stereo not drawn) (X5-[ξOrn(4,5-diOH)]T[Hyp][ξhTyr(βξ-OH,γξ-OH)]T[ξPro(3ξ-OH,4ξ-Me)]; lactam 1-C; configuration not given here)	30		
CCCCCCCCCCCC(=O)Nc1ccc(C(=O)NC2CC(O)C(O)NC(=O)C3C(O)C(C)CN3C(=O)C(C(C)O)NC(=O)C(C(O)C(O)c3ccc(O)cc3)NC(=O)C3CC(O)CN3C(=O)C(C(C)O)NC2=O)cc1 (stereo not drawn) ({Lauroyl-4Abz}-[ξOrn(4,5-diOH)]T[Hyp][ξhTyr(βξ-OH,γξ-OH)]T[ξPro(3ξ-OH,4ξ-Me)]; lactam 1-C; configuration not given here)		substrates	
CCN1C(=O)C=CC1=O [N-ethylmaleimide (NEM), N-ethylmaleimide]			enhancement of the rate of conversion of ECB to ECB nucleus (purified deacylase): 6-7 fold
CCCCCCCCCCCCCCCC(=O)NC1CC(O)C(O)NC(=O)C2C(O)C(C)CN2C(=O)C(C(C)O)NC(=O)C(C(O)C(O)c2ccc(O)cc2)NC(=O)C2CC(O)CN2C(=O)C(C(C)O)NC1=O (stereo not drawn) [aculeacin] (Palmitoyl-[ξOrn(4,5-diOH)]T[Hyp][ξhTyr(βξ-OH,γξ-OH)]T[ξPro(3ξ-OH,4ξ-Me)]; lactam 1-C; configuration not given here)		deacylates	
CCCCCC=CCC=CCCCCCCCC(=O)NC1CC(O)C(O)NC(=O)C2C(O)C(C)CN2C(=O)C(C(C)O)NC(=O)C(C(O)C(O)c2ccc(O)cc2)NC(=O)C2CC(O)CN2C(=O)C(C(C)O)NC1=O (stereo not drawn) [echinocandin B] (X1-[ξOrn(4,5-diOH)]T[Hyp][ξhTyr(βξ-OH,γξ-OH)]T[ξPro(3ξ-OH,4ξ-Me)]; lactam 1-C; configuration not given here)	100	deacylates	ratio of ECB nucleus formed to ECB disappearance (reaction stoichiometry): about 52.4%; Vmax for the ECB reaction (purified enzyme): 10 to 11 µmol/min/mg
Daptomycin		cleaves the fatty acid side chain	

— patent US5573936A, “Process for purifying echinocandin B deacylase” (Eli Lilly and Company, priority 1995, dated 1996)
